# Data from patent US7947719B2, “Biologically active compounds obtainable from Sorangium cellulosum” (Hemholtz-Zentrum fur Infektionsforschung GmbH, priority 2005, dated 2011).
# Assays:
# Type in all cases: cell-based
# [1] = tested on: Botrytis cinerea; assay: Minimal inhibitory concentration against micro-organisms
# Text: (§1) As an example for compounds according to the invention, Disorazole Z has been analyzed for biological activity following the methods as disclosed in Irschik et al. (The Sorangicins, novel and powerful inhibitors of eubacterial RNA polymerase isolated from myxobacteria, J. Antibiotics 40: 7-13 (1987)). The following minimal inhibitory concentrations against organisms were found: […]
# [2] = tested on: Escherichia coli (DMSZ 5347); assay: as above
# Text: as §1
# [3] = tested on: Mucor hiemalis; assay: as above
# Text: as §1
# [4] = tested on: Pythium debaryanum; assay: as above; details: Globisporangium debaryanum
# Text: as §1
# [5] = tested on: Rhodotorula glutinis; assay: as above
# Text: as §1
# [6] = tested on: Saccharomyces cerevisiae; assay: as above
# Text: as §1
# [7] = tested on: Staphylococcus aureus; assay: as above
# Text: as §1
# [8] = tested on: mouse fibroblast cell line L929 (ATCC CCL 1); assay: Toxicity against mouse fibroblast cell line L929; details: L929 (ATCC CCL 1) mouse fibroblasts; read-out: inhibitory concentration IC50 (toxicity)
# Experimental: The toxicity tested against the mouse fibroblast cell line L929 (ATCC CCL 1) according to Sasse et al. (J. Antibiotics 56:827-831 (2003)), an inhibitory concentration IC50 of 30 pg/mL was determined.
smiles,measurement,setting,value
C/C=C/C(O)C(C)(C(=O)OC)C1C\C=C/C=C/C=C/c2nc(co2)C(=O)OC(C(C)(C(=O)OC)C(O)/C=C/C)C\C=C/C=C/C=C/c2nc(co2)C(=O)O1 (centres unmarked) [Disorazole Z],MIC,[1],6 µg/mL
same,MIC,[2],> 25 µg/mL
same,MIC,[3],> 6 µg/mL
same,MIC,[4],3 µg/mL
same,MIC,[5],3 µg/mL
same,MIC,[6],> 6 µg/mL
same,MIC,[7],> 25 µg/mL
same,IC50,[8],0.03 ng/mL
